Experimental data as given in patent US20190106460A1, “BINDING INHIBITORS OF THE BETA. TRANSDUCIN REPEAT-CONTAINING PROTEIN” (priority 2011, published 2019).
Non-standard residues stand in square brackets, D forms with d. Residues, ends and D or L forms follow the SMILES beside them. Groups on a side chain read outwards from the residue. *: point of attachment. X3 = CC(C)CCC[C@@H](C)[C@H]1CCC2C3CC=C4C[C@@H](OC(=O)*)CC[C@]4(C)C3CC[C@@]21C; Benzenesulfonyl(4-OMe) = COc1ccc(S(=O)(=O)*)cc1; Phe(3-F) = N[C@@H](Cc1cccc(F)c1)C(=O)O; Ahx = NCCCCCC(=O)O

Columns and labels:
[1] = test system: MCF7:GFP-PDCD4^S71A/S76A; experiment: Fluorescence reporter assay for PDCD4 accumulation, mutant; assay type: cell-based; conditions: PDCD4 mutated to eliminate PDCD4-βTrCP interaction
Procedure: Fluorescence Reporter Assay for PDCD4 Accumulation
This assay uses two stable cell lines expressing PDCD4 fused to a GFP tag.
The two stable cell lines MCF7:GFP-PDCD4^WT and MCF7:GFP-PDCD4^S71A/S76Awere grown in 10 ml DMEM+10% FBS and 1% Pen/Strep supplemented with 2 mg/ml Geneticin at 37° C./5% CO2. These cell lines were nucleofected as described above except for the additional supplementation of all media with 2 mg/ml Geneticin.
Fluorescent Reporter Assay
The cells were fixed by removing the growth media and adding 3.7% Formaldehyde in PBS to the cells. The cells were then incubated at RT for 20 mins and the plates washed 3× in PBS.
DRAQ5 DNA stain was added to the cells in PBS at a concentration of 1:10000 and incubated at RT for 1 hour protecting from light. The plate was washed 3× in PBS and read on the Perkin Elmer OPERA platform using the nuclei counting algorithm F in both the 488 nm channel (GFP) and 640 nm channel (DRAQ5). DMSO was used as a negative control and 10 μM MG132 was used as a positive control. Error bars represent standard deviation from 6 replicates. The data are expressed as percentage activity with DMSO (WT)=0% and 10 μM MG132 (WT)=100% activity.
This confirms that the stabilisation resulting from the compounds is dependent on the βTrCP/PDCD4 interaction and is not due to another mechanism such as a global increase in protein production.

[2] = test system: β-catenin in MCF7 cells; experiment: β-Catenin in cell western; assay type: cell-based
Procedure: β-Catenin in Cell Western
Plating of the MCF7 cells onto 96 well plates—this step is carried out 1 day before the treatment of the cells to allow the cells to adhere well to the tissue culture plastic. MCF7 cells to be used for seeding should be less than 100% confluent in a 10 cm dish. Add 3 ml of RT trypsin/EDTA to the cells. Incubate at 37° C./5% CO2 for a few minutes until the cells easily come away from the plastic by gentle swirling. Add 7 ml of media to the cells. Wash the bottom of the plate gently with the 10 ml to ensure all cells are captured and dispense into a 15 ml falcon. Add 1001l of the cells to 1001l of Trypan blue and add to haemocytometer to count the number of cells present. Make up approx 10 ml of cells in media at 2×10^4 cells/1001l (well) with fresh media. Add this correct seeding density to a 10 cm dish. Dispense 1001l of cells/well into a 96 well plate without using the outside wells. Incubate at 37° C./5% CO2 overnight
Treatment of MCF7 cells with compound of interest (COI) and controls—Put OptiMEM into 37° C. water bath to warm. Add 4 ul of 50 mM compound X for testing to eppendorf—this is tube 1. Add 2 al DMSO to 6 tubes marked tube 2-7. Take 21 al of 50 mM (COI) and add to 2 al of DMSO in tube 2 and pipette up and down to mix. Take 21 al from tube 2 and add to 2 μl DMSO in next tube and mix. […]

`COc1ccc(S(=O)(=O)N[C@H](CC(=O)O)C(=O)N[C@@H](CCC(=O)O)C(=O)NCC(=O)N[C@@H](Cc2cccc(F)c2)C(=O)N[C@@H](Cc2c[nH]c3ccccc23)C(=O)N[C@@H](CCC(=O)O)C(=O)NCCCCCC(=O)N[C@@H](CCCCNC(=O)CCCCCNC(=O)O[C@H]2CC[C@@]3(C)C(=CCC4C3CC[C@@]3(C)C4CC[C@@H]3[C@H](C)CCCC(C)C)C2)C(N)=O)cc1` (some centres unmarked) [UBP036, 4-(MeO)PhSO2-dEGF(3F)WE-Ahx-K(Ahx-Chol)-NH2] ({Benzenesulfonyl(4-OMe)}-[dD]EG[Phe(3-F)]WE[Ahx]K([Ahx-X3])-NH2) was tested, and the “accumulation of GFP-PDCD4 Mut, fluorescent reporter assay” value [1] was “no accumulation of PDCD4” and the “accumulation of β-catenin, in cell western” value [2] was “accumulation of β-catenin”.
